Measurements as given in article PMC9027532, “Preclinical Pharmacokinetic Studies of a Novel Diuretic Inhibiting Urea Transporters” (Molecules, 2022).
Values joined by “and” are separate entries in the source; they are usually repeats but may differ in a detail not shown here. Identical values can stand only once.

How the values were obtained:
[1] = Excretion experiment in bile duct cannulated rats (bile); format: in vivo, SD rats; settings: single oral dose 100 mg/kg
Experimental: The cumulative excretion ratios of unchanged 25a in the urine, feces, and bile of rats after a single oral dose at 100 mg/kg were 0.14% ± 0.05%, 3.16% ± 0.96%, and 0.018% ± 0.006%, respectively (Figure 6 and Tables S5–S7). […] Further phenotyping and metabolite identification studies should be conducted to elucidate the major elimination forms of 25a in the future.
Four SD rats were adapted in metabolic cages for 3 days in advance and then administrated with 25a at 100 mg/kg orally. Feces and urine were collected and weighed at 0–6 h, 6–12 h, […], 24–36 h, 36–48 h, 48–60 h, and 60–72 h after administration. Parallelly, four SD rats received bile duct cannulation and were given a single dose of 25a at 100 mg/kg orally. Bile was collected and weighed at 0–2 h, 0–4 h, 0–6 h, 0–8 h, 0–10 h, 0–12 h, 0–24 h, 0–36 h, and 0–48 h after administration. All samples were stored at −80 °C until analysis.

[2] = Blood plasma ratio, human blood; format: in vitro ADME; settings: for Blood Plasma Ratio: human
Experimental: The BPR of 25a in rats and humans was assessed. […] In addition, a significant species difference between rats and humans was observed (p < 0.05, Student’s t-test, n = 3).
The blood plasma ratio of 25a was investigated as previously reported. Briefly, fresh whole blood was collected into collection tubes containing K2–EDTA as an anticoagulant from SD rats and healthy volunteers. Blood spiked with 50, 500, and 2500 ng/mL 25a was incubated in the incubator with 5% CO2 at 37 ± 1 °C for 1 h. Some of the incubated samples were processed as blood samples; the remaining incubated samples were centrifuged to generate plasma samples. The concentration of 25a in samples was determined using the validated LC–MS/MS method.

[3] = Stability of 25a in rat plasma, urine, feces and bile under storage conditions; format: in vitro ADME
Experimental: The stability profiles of 25a in the given matrices stored under different conditions (4 °C for 24 h, 25 °C for 4 h, three freeze–thaw cycles, and −80 °C for 30 days) are shown in Table 5.
The accuracy and precision were evaluated by calculating the intraday and interday RE and CV of the QC samples. The RE should be within ±15% of the theoretical concentrations (3, 100, and 800 ng/mL). The CV values should be no more than 15%. For the LLOQ, the cutoff values of RE and CV were 100% ± 20% and <20%. The stability of 25a in the biological matrices (rat plasma, urine, fecal homogenate, and bile) was assessed at 3, 100, and 800 ng/mL (n = 6) under different storage conditions, which included storage at room temperature for 4 h, storage at 4 °C for 24 h, three freeze–thaw cycles, and storage at −80 °C for 30 days.

CC(=O)Nc1ccc(NC(=O)c2ccc(C(C)=O)o2)cc1 [Compound 25a, N-(4-acetamidophenyl)-5-acetylfuran-2-carboxamide]
Accumulated Amount in bile ([1]; 0-2 h): 0.531 ± 0.233 µg
Concentration in bile ([1]; 0-2 h): 220.5 ± 44.4 ng/mL
The cumulative excretion ratio in bile ([1]; 0-2 h): 0.0022 ± 0.0011%
Accumulated Amount in bile ([1]; 0-4 h): 1.138 ± 0.434 µg
Concentration in bile ([1]; 0-4 h): 192.3 ± 52.3 ng/mL
The cumulative excretion ratio in bile ([1]; 0-4 h): 0.0048 ± 0.0022%
Accumulated Amount in bile ([1]; 0-6 h): 1.451 ± 0.481 µg
Concentration in bile ([1]; 0-6 h): 161.3 ± 55.4 ng/mL
The cumulative excretion ratio in bile ([1]; 0-6 h): 0.0061 ± 0.0023%
Accumulated Amount in bile ([1]; 0-8 h): 1.783 ± 0.489 µg
Concentration in bile ([1]; 0-8 h): 169.5 ± 57.2 ng/mL
The cumulative excretion ratio in bile ([1]; 0-8 h): 0.0074 ± 0.0023%
Accumulated Amount in bile ([1]; 0-10 h): 2.215 ± 0.603 µg
Concentration in bile ([1]; 0-10 h): 156.8 ± 23.8 ng/mL
The cumulative excretion ratio in bile ([1]; 0-10 h): 0.0092 ± 0.0026%
Accumulated Amount in bile ([1]; 0-12 h): 2.888 ± 0.929 µg
Concentration in bile ([1]; 0-12 h): 147.3 ± 27.7 ng/mL
The cumulative excretion ratio in bile ([1]; 0-12 h): 0.0120 ± 0.0043%
Accumulated Amount in bile ([1]; 0-24 h): 3.664 ± 1.010 µg
Concentration in bile ([1]; 0-24 h): 83.5 ± 19.9 ng/mL
The cumulative excretion ratio in bile ([1]; 0-24 h): 0.0152 ± 0.0045%
Accumulated Amount in bile ([1]; 0-36 h): 4.113 ± 1.058 µg
Concentration in bile ([1]; 0-36 h): 40.7 ± 21.1 ng/mL
The cumulative excretion ratio in bile ([1]; 0-36 h): 0.0171 ± 0.0049%
Accumulated Amount in bile ([1]; 0-48 h): 4.300 ± 1.184 µg
Concentration in bile ([1]; 0-48 h): 17.9 ± 17.1 ng/mL
The cumulative excretion ratio in bile ([1]; 0-48 h): 0.0179 ± 0.0057%
cumulative excretion ratio of unchanged 25a in bile ([1]; 100 mg/kg): 0.018% and 0.018% ± 0.006%
Blood Plasma Ratio ([2]; 50 ng/mL): 1.39 ± 0.14
Blood Plasma Ratio ([2]; 500 ng/mL): 1.28 ± 0.05
Blood Plasma Ratio ([2]; 2500 ng/mL): 1.22 ± 0.32
mean blood plasma ratio (BPR) ([2]; humans, 50, 500, 2500 ng/mL): 1.22–1.39
Stability RE ([3]; rat bile, HQC 800 ng/mL, 4 °C for 24 h): −7.1%
Stability RE ([3]; rat bile, HQC 800 ng/mL, 25 °C for 4 h): −7.8%
Stability RE ([3]; rat bile, HQC 800 ng/mL, three freeze–thaw cycles): −12.2%
Stability RE ([3]; rat bile, HQC 800 ng/mL, −80 °C for 30 days): −7.1%
Stability RE ([3]; rat bile, LQC 3 ng/mL, 4 °C for 24 h): −14.7%
Stability RE ([3]; rat bile, LQC 3 ng/mL, 25 °C for 4 h): −14.9%
Stability RE ([3]; rat bile, LQC 3 ng/mL, three freeze–thaw cycles): −5.8%
Stability RE ([3]; rat bile, LQC 3 ng/mL, −80 °C for 30 days): −2.1%
Stability RE ([3]; rat bile, MQC 100 ng/mL, 4 °C for 24 h): −3.9%
Stability RE ([3]; rat bile, MQC 100 ng/mL, 25 °C for 4 h): −5.1%
Stability RE ([3]; rat bile, MQC 100 ng/mL, three freeze–thaw cycles): −5.2%
Stability RE ([3]; rat bile, MQC 100 ng/mL, −80 °C for 30 days): −3.9%
Stability RE ([3]; rat feces, HQC 800 ng/mL, 4 °C for 24 h): −5.3%
Stability RE ([3]; rat feces, HQC 800 ng/mL, 25 °C for 4 h): −2.4%
Stability RE ([3]; rat feces, HQC 800 ng/mL, three freeze–thaw cycles): −9.1%
Stability RE ([3]; rat feces, HQC 800 ng/mL, −80 °C for 30 days): −5.3%
Stability RE ([3]; rat feces, LQC 3 ng/mL, 4 °C for 24 h): 3.9%
Stability RE ([3]; rat feces, LQC 3 ng/mL, 25 °C for 4 h): −5.2%
Stability RE ([3]; rat feces, LQC 3 ng/mL, three freeze–thaw cycles): −5.2%
Stability RE ([3]; rat feces, LQC 3 ng/mL, −80 °C for 30 days): 1.2%
Stability RE ([3]; rat feces, MQC 100 ng/mL, 4 °C for 24 h): 4.8%
Stability RE ([3]; rat feces, MQC 100 ng/mL, 25 °C for 4 h): 1.3%
Stability RE ([3]; rat feces, MQC 100 ng/mL, three freeze–thaw cycles): −3.2%
Stability RE ([3]; rat feces, MQC 100 ng/mL, −80 °C for 30 days): 4.8%
Stability RE ([3]; rat plasma, HQC 800 ng/mL, 4 °C for 24 h): −4.5%
Stability RE ([3]; rat plasma, HQC 800 ng/mL, 25 °C for 4 h): −3.1%
Stability RE ([3]; rat plasma, HQC 800 ng/mL, three freeze–thaw cycles): −7.6%
Stability RE ([3]; rat plasma, HQC 800 ng/mL, −80 °C for 30 days): −4.5%
Stability RE ([3]; rat plasma, LQC 3 ng/mL, 4 °C for 24 h): 2.8%
Stability RE ([3]; rat plasma, LQC 3 ng/mL, 25 °C for 4 h): −4.9%
Stability RE ([3]; rat plasma, LQC 3 ng/mL, three freeze–thaw cycles): −3.6%
Stability RE ([3]; rat plasma, LQC 3 ng/mL, −80 °C for 30 days): 1.1%
Stability RE ([3]; rat plasma, MQC 100 ng/mL, 4 °C for 24 h): 3.7%
Stability RE ([3]; rat plasma, MQC 100 ng/mL, 25 °C for 4 h): −2.5%
Stability RE ([3]; rat plasma, MQC 100 ng/mL, three freeze–thaw cycles): −4.0%
Stability RE ([3]; rat plasma, MQC 100 ng/mL, −80 °C for 30 days): 3.7%
stability during sample preparation and storage ([3]; rat plasma, urine, feces, bile, 4 °C 24 h, 25 °C 4 h, three freeze–thaw cycles, −80 °C 30 days): stable
Stability RE ([3]; rat urine, HQC 800 ng/mL, 4 °C for 24 h): −2.3%
Stability RE ([3]; rat urine, HQC 800 ng/mL, 25 °C for 4 h): −2.3%
Stability RE ([3]; rat urine, HQC 800 ng/mL, three freeze–thaw cycles): −1.5%
Stability RE ([3]; rat urine, HQC 800 ng/mL, −80 °C for 30 days): −2.3%
Stability RE ([3]; rat urine, LQC 3 ng/mL, 4 °C for 24 h): −8.3%
Stability RE ([3]; rat urine, LQC 3 ng/mL, 25 °C for 4 h): 3.2%
Stability RE ([3]; rat urine, LQC 3 ng/mL, three freeze–thaw cycles): 5.8%
Stability RE ([3]; rat urine, LQC 3 ng/mL, −80 °C for 30 days): 6.2%
Stability RE ([3]; rat urine, MQC 100 ng/mL, 4 °C for 24 h): 2.5%
Stability RE ([3]; rat urine, MQC 100 ng/mL, 25 °C for 4 h): 4.3%
Stability RE ([3]; rat urine, MQC 100 ng/mL, three freeze–thaw cycles): −5.2%
Stability RE ([3]; rat urine, MQC 100 ng/mL, −80 °C for 30 days): 2.5%
